Experimental data from ChEMBL document CHEMBL3751848, “Receptor binding profiles and quantitative structure-affinity relationships of some 5-substituted-N,N-diallyltryptamines” (Bioorg Med Chem Lett, 2016).

How the values were obtained:
[1] = target: 5-hydroxytryptamine receptor 2B (Homo sapiens, UniProt P41595); test: Binding affinity to 5-HT 2B (unknown origin) by competition binding assay
[2] = target: 5-hydroxytryptamine receptor 1B (Homo sapiens, UniProt P28222); test: Binding affinity to 5-HT 1B (unknown origin) by competition binding assay
5-hydroxytryptamine receptor 1B, sequence (P28222 whole entry): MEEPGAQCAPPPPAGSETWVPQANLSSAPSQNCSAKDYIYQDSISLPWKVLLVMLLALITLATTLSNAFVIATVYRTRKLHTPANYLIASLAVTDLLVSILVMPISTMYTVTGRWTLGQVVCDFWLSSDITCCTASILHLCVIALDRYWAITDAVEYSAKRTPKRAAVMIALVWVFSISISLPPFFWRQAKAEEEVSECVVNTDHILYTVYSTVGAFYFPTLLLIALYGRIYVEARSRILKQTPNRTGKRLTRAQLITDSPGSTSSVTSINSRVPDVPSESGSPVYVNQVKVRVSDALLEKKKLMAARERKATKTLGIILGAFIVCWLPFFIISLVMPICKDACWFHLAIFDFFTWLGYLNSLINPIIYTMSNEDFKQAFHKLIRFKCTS

[3] = target: 5-hydroxytryptamine receptor 1D (Homo sapiens, UniProt P28221); test: Binding affinity to 5-HT 1D (unknown origin) by competition binding assay
5-hydroxytryptamine receptor 1D, sequence (P28221 whole entry): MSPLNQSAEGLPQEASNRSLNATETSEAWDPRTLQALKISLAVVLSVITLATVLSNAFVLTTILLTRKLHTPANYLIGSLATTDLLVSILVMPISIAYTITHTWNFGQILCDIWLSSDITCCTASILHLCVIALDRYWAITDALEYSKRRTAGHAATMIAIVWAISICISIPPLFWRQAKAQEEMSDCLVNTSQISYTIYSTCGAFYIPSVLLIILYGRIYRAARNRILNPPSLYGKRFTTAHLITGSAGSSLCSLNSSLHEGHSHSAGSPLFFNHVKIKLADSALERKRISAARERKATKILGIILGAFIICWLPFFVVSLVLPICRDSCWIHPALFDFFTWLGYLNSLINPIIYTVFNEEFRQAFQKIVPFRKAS

[4] = target: T1, Alpha-2C adrenergic receptor (Homo sapiens, UniProt P18825); test: Binding affinity to alpha-2C adrenergic receptor (unknown origin) by competition binding assay
T1 sequence (P18825 whole entry): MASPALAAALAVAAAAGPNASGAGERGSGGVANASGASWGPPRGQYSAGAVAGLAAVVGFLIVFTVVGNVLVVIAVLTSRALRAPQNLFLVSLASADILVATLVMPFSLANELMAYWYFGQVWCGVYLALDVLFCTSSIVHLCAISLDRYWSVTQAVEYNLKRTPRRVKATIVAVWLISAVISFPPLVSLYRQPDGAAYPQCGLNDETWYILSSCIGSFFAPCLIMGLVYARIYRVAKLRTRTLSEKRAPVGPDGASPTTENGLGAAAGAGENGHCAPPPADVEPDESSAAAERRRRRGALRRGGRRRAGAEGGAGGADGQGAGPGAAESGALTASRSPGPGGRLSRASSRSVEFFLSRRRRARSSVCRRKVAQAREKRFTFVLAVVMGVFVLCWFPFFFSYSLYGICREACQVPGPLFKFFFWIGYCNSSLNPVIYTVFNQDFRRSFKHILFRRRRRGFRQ

[5] = target: T2, 5-hydroxytryptamine receptor 2C (Homo sapiens, UniProt P28335); test: Binding affinity to 5-HT 2C (unknown origin) by competition binding assay
T2 sequence (P28335 whole entry): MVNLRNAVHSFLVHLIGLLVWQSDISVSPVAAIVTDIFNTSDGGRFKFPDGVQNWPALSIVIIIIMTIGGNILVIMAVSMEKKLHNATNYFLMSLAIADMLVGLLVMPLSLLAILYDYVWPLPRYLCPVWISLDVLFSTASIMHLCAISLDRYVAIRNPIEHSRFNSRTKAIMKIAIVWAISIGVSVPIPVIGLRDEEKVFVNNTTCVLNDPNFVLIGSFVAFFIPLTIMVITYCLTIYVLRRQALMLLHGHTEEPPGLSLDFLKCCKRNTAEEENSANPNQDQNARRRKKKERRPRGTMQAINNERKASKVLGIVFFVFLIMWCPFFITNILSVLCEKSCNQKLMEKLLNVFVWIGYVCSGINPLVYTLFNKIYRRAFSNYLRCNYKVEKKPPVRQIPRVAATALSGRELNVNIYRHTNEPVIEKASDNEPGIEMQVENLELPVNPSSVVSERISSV

[6] = Binding affinity to sigma 2 receptor (unknown origin) by competition binding assay; design: species or system Homo sapiens
[7] = target: 5-hydroxytryptamine receptor 1E (Homo sapiens, UniProt P28566); test: Binding affinity to 5-HT 1E (unknown origin) by competition binding assay
5-hydroxytryptamine receptor 1E, sequence (P28566 whole entry): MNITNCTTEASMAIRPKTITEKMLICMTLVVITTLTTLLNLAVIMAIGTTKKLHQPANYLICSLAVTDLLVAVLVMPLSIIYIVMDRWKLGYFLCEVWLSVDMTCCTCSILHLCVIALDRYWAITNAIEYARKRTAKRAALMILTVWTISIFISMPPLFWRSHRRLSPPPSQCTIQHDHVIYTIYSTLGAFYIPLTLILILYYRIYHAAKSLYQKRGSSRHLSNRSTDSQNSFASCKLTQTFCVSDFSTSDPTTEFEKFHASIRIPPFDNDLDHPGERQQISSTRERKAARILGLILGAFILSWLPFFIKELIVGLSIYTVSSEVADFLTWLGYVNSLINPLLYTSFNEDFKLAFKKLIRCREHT

[8] = target: 5-hydroxytryptamine receptor 6 (Homo sapiens, UniProt P50406); test: Binding affinity to 5-HT 6 (unknown origin) by competition binding assay
5-hydroxytryptamine receptor 6, sequence (P50406 whole entry): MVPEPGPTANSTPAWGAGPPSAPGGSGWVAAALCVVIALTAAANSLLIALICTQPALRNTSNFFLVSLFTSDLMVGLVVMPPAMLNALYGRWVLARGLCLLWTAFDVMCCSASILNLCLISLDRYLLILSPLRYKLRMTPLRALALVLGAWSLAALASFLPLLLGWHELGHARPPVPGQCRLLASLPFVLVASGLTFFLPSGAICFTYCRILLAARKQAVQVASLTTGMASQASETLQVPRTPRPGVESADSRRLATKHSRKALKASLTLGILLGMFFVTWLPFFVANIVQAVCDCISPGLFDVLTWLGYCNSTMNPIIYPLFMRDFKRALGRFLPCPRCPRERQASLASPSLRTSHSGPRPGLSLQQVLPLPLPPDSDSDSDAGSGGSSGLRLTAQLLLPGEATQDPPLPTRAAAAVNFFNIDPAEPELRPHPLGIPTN

[9] = target: 5-hydroxytryptamine receptor 7 (Homo sapiens, UniProt P34969); test: Binding affinity to 5-HT 7 (unknown origin) by competition binding assay
5-hydroxytryptamine receptor 7, sequence (P34969 whole entry): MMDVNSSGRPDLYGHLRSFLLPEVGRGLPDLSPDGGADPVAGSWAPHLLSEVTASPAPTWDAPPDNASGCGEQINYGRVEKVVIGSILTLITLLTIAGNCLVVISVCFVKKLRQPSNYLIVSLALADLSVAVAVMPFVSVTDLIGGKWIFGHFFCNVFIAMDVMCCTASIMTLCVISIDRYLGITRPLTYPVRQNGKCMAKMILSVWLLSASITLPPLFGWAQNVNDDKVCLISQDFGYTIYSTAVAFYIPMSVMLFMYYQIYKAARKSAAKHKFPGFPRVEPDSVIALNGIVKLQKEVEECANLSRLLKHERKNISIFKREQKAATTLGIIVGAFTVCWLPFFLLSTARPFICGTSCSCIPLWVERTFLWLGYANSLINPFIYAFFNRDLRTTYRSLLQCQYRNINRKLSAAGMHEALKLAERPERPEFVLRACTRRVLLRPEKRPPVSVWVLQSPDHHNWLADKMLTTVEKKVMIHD

[10] = target: Alpha-2B adrenergic receptor (Homo sapiens, UniProt P18089); test: Binding affinity to alpha-2B adrenergic receptor (unknown origin) by competition binding assay
Alpha-2B adrenergic receptor, sequence (P18089 whole entry): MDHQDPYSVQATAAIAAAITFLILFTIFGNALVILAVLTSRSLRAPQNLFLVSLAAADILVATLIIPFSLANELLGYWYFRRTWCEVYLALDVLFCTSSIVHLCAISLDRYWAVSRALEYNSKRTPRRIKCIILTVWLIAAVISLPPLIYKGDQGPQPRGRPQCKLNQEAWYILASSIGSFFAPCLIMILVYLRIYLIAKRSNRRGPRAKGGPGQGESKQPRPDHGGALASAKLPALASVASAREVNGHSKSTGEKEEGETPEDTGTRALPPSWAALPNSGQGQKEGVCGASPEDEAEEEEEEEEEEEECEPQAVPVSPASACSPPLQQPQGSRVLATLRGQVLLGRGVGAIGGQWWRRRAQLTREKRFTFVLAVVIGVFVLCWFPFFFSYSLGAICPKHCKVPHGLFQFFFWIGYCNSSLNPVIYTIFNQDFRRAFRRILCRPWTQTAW

[11] = target: T3, Alpha-1A adrenergic receptor (Homo sapiens, UniProt P35348); test: Binding affinity to alpha-1A adrenergic receptor (unknown origin) by competition binding assay
T3 sequence (P35348 whole entry): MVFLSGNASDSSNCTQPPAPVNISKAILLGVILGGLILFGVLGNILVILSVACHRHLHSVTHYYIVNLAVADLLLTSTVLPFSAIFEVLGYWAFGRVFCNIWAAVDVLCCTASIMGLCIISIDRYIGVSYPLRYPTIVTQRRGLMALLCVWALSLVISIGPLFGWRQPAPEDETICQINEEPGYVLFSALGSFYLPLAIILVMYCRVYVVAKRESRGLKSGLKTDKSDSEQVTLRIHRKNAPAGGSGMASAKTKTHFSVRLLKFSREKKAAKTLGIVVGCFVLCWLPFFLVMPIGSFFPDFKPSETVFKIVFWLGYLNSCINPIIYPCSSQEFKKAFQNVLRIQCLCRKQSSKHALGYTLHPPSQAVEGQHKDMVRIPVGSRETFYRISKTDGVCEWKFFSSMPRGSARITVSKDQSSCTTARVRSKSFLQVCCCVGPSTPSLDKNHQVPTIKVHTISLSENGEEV

[12] = target: Histamine H1 receptor (Homo sapiens, UniProt P35367); test: Binding affinity to histamine H1 receptor (unknown origin) by competition binding assay
Histamine H1 receptor, sequence (P35367 whole entry): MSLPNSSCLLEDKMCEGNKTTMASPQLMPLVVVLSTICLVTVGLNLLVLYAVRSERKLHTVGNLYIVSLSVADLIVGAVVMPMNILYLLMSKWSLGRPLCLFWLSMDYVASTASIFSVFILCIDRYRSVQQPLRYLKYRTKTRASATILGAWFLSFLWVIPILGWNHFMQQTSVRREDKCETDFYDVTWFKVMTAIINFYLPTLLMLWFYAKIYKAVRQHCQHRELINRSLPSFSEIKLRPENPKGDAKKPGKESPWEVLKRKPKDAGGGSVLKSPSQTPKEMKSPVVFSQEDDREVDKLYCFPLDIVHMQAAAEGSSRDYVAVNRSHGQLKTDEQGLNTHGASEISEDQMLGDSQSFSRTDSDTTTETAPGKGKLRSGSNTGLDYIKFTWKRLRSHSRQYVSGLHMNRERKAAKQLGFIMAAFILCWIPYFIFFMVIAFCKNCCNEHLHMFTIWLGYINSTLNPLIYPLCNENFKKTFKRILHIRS

5-hydroxytryptamine receptor 2B, sequence (P41595 whole entry): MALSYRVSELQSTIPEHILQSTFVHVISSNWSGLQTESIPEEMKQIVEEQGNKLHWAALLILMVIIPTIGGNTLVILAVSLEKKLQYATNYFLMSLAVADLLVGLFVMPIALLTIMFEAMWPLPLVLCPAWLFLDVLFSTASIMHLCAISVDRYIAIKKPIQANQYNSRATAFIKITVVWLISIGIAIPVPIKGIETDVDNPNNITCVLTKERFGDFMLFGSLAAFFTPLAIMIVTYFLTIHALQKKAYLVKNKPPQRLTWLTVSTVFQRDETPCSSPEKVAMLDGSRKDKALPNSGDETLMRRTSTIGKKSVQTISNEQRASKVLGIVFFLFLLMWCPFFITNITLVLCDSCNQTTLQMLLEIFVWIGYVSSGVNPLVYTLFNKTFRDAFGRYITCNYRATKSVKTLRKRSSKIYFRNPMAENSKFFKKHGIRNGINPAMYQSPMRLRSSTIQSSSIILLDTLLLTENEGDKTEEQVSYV

SMILES	Ki ([1]; read-out: Ki) [nM]	Ki ([1]; read-out: pKi (converted)) [nM]	Ki ([3]; read-out: Ki) [nM]	Ki ([3]; read-out: pKi (converted)) [nM]	Ki ([4]; read-out: Ki) [nM]	Ki ([4]; read-out: pKi (converted)) [nM]	Ki ([5]; read-out: Ki) [nM]	Ki ([5]; read-out: pKi (converted)) [nM]	Ki ([7]; read-out: Ki) [nM]	Ki ([7]; read-out: pKi (converted)) [nM]	Ki ([8]; read-out: Ki) [nM]	Ki ([8]; read-out: pKi (converted)) [nM]	Ki [11] [nM]	Ki ([12]; read-out: Ki) [nM]	Ki ([12]; read-out: pKi (converted)) [nM]	also measured
C=CCN(CC=C)CCc1c[nH]c2ccccc12	< 10000	61.7	< 10000	692	< 10000	891	< 10000	389	< 10000	380	< 10000	1740	1660	< 10000	126	pKi [2]: > 5; Ki [6]: < 10000 nM; pKi [6]: 6.45; pKi [9]: > 5; Ki ([10]; read-out: Ki): < 10000 nM; Ki ([10]; read-out: pKi (converted)): 302 nM
C=CCN(CC=C)CCc1c[nH]c2ccc(C)cc12	< 10000	60.3	< 10000	398	< 10000	1100	< 10000	316	< 10000	490	< 10000	741	1260	< 10000	676	Ki [2]: 1350 nM; Ki [9]: 155 nM
